Test results from patent US10053485B2, “Cytotoxic agents that preferentially target leukemia inhibitory factor (LIF) for the treatment of malignancies and as new contraceptive agents” (Evestra, Inc., priority 2015, dated 2018).

Key:
[1] = system: HOP-92; experiment: NCI-60 screen, Non-Small Cell Lung Cancer panel; format: cell-based; settings: Homo sapiens, HOP-92, 48 h
[2] = system: NCI-H332M; experiment: NCI-60 screen, Non-Small Cell Lung Cancer panel; format: cell-based; settings: Homo sapiens, 48 h
[3] = system: HCT-15; experiment: NCI-60 screen, Colon Cancer panel; format: cell-based; settings: Homo sapiens, HCT-15, 48 h
[4] = system: KM12; experiment: NCI-60 screen, Colon Cancer panel; format: cell-based; settings: Homo sapiens, KM12, 48 h
[5] = system: SF-268; experiment: NCI-60 screen, CNS Cancer panel; format: cell-based; settings: Homo sapiens, SF-268, 48 h
[6] = system: SK-MEL-5; experiment: NCI-60 screen, Melanoma panel; format: cell-based; settings: Homo sapiens, SK-MEL-5, 48 h
[7] = system: UACC-62; experiment: NCI-60 screen, Melanoma panel; format: cell-based; settings: Homo sapiens, UACC-62, 48 h
[8] = system: OVCAR-5; experiment: NCI-60 screen, Ovarian Cancer panel; format: cell-based; settings: Homo sapiens, OVCAR-5, 48 h
[9] = system: NCI/ADR-RES; experiment: NCI-60 screen, Ovarian Cancer panel; format: cell-based; settings: Homo sapiens, 48 h
[10] = system: PC-3; experiment: NCI-60 screen, Prostate Cancer panel; format: cell-based; settings: Homo sapiens, PC-3, 48 h
[11] = system: CAKI-1; experiment: NCI-60 screen, Renal Cancer panel; format: cell-based; settings: Homo sapiens, CAKI-1, 48 h
[12] = system: TK-10; experiment: NCI-60 screen, Renal Cancer panel; format: cell-based; settings: Homo sapiens, TK-10, 48 h
[13] = system: T-47D; experiment: NCI-60 screen, Breast Cancer panel; format: cell-based; settings: Homo sapiens, T47D, 48 h
[14] = system: MDA-MB-468; experiment: NCI-60 screen, Breast Cancer panel; format: cell-based; settings: Homo sapiens, MDA-MB-468, 48 h
Protocol: EC 330 was also tested using the NCI-60 Screening Methodology. The human tumor cell lines of the cancer screening panel are grown in RPMI 1640 medium containing 5% fetal bovine serum and 2 mM L-glutamine. For a typical screening experiment, cells are inoculated into 96 well microtiter plates in 100 μL at plating densities ranging from 5,000 to 40,000 cells/well depending on the doubling time of individual cell lines. After cell inoculation, the microtiter plates are incubated at 37° C., 5% CO2, 95% air and 100% relative humidity for 24 h prior to addition of experimental drugs. […]
Following drug addition, the plates are incubated for an additional 48 h at 37° C., 5% CO2, 95% air, and 100% relative humidity. […] Bound stain is subsequently solubilized with 10 mM trizma base, and the absorbance is read on an automated plate reader at a wavelength of 515 nm. […] Using the seven absorbance measurements [time zero, (Tz), control growth, (C), and test growth in the presence of drug at the five concentration levels (Ti)], the percentage growth is calculated at each of the drug concentrations levels. Percentage growth inhibition is calculated as: [(Ti−Tz)/(C−Tz)]×100 for concentrations for which Ti>/=Tz [(Ti−Tz)/Tz]×100 for concentrations for which Ti<Tz.
Three dose response parameters are calculated for each experimental agent. […]

[15] = system: LNCaP (AR+ Prostate); experiment: Short term (72 h) cytotoxicity assay; format: cell-based
[16] = system: MDM2 / P53 in MCF-7 cells; experiment: P53 / MDM2 levels in MCF-7 cells (FIG. 5); format: cell-based, human
[17] = read-out: GI50 (log10GI50) (converted)
[18] = read-out: LC50 (log10LC50) (converted)

C#CC(F)(F)[C@]1(O)CCC2C3CCC4=CC(=O)CCC4=C3C(c3ccc(C4CC4)cc3)C[C@@]21C (stereo partly drawn) [EC330, 17α-(1,1-difluoro-2-propyn-1-yl)-17β-hydroxy-11β-[4-p-(cyclopropyl)phenyl]estra-4,9-dien-3-one]
GI50 [1, 17]: < 10 nM
CC50 [1, 18]: 19.1 nM
GI50 [2, 17]: 3800 nM
CC50 [2, 18]: > 100000 nM
GI50 [3, 17]: 1480 nM
CC50 [3, 18]: > 100000 nM
GI50 [4, 17]: < 10 nM
CC50 [4, 18]: 44700 nM
GI50 [5, 17]: 126 nM
CC50 [5, 18]: 1550 nM
GI50 [6, 17]: 4680 nM
CC50 [6, 18]: 43700 nM
GI50 [7, 17]: 1950 nM
CC50 [7, 18]: > 100000 nM
GI50 [8, 17]: 1070 nM
CC50 [8, 18]: > 100000 nM
GI50 [9, 17]: 25.7 nM
CC50 [9, 18]: > 100000 nM
GI50 [10, 17]: 513 nM
CC50 [10, 18]: > 100000 nM
GI50 [11, 17]: 29.5 nM
CC50 [11, 18]: > 100000 nM
GI50 [12, 17]: 2630 nM
CC50 [12, 18]: > 100000 nM
GI50 [13, 17]: < 10 nM
CC50 [13, 18]: > 100000 nM
CC50 [14, 18]: 50100 nM
GI50 ([14]; SRB, read-out: GI50 (log10GI50) (converted)): 204 nM
IC50 [15]: 53 nM
P53 levels / MDM2 [16]: restore P53 levels by inhibiting MDM2
